US10329295B2, “Pyrrolotriazine inhibitors of IRAK4 activity” (MERCK SHARP & DOHME CORP., priority 2015, dated 2019)
Where a name gives a salt, the structure may show the parent alone.

Biological target: GST tagged IRAK4 (Homo sapiens (Human), UniProt Q9NWZ3)
Assay: IRAK4 Kinase Assay (IMAP fluorescence polarization)
Type: biochemical
Conditions: 0.5 nM GST tagged IRAK4, 100 μM ATP, 30 minutes at 25° C.
Method: The kinase activity of IRAK4 is determined by its ability to catalyze the phosphorylation of a fluorescent polypeptide substrate. The extent of phosphorylation is measured using the IMAP technology (Molecular Devices) where the phosphorylated fluorescent substrate binds to the large M(III)-based nanoparticles which reduces the rotational speed of the substrate and thus increases its fluorescent polarization (FP).
20 μL reaction mixture contains 10 mM TriHCl, pH 7.2, 0.5 nM GST tagged IRAK4 (SignalChem), 100 nM fluorescent peptide substrate (RP7030, Molecular Devices), 100 μM ATP, 1 mM DDT, 1 mM MgCl2, and 0.01% Tween 20. The reaction is initiated by the addition of ATP. After incubation for 30 minutes at 25° C., 60 μL of Progressive IMAP Reagent (Molecular Devices) is added to stop the reaction. Change in RP7030's FP is determined by a FP reader (Analyst HT, LJL BioSystems).

Sequence of GST tagged IRAK4 (Q9NWZ3 whole entry): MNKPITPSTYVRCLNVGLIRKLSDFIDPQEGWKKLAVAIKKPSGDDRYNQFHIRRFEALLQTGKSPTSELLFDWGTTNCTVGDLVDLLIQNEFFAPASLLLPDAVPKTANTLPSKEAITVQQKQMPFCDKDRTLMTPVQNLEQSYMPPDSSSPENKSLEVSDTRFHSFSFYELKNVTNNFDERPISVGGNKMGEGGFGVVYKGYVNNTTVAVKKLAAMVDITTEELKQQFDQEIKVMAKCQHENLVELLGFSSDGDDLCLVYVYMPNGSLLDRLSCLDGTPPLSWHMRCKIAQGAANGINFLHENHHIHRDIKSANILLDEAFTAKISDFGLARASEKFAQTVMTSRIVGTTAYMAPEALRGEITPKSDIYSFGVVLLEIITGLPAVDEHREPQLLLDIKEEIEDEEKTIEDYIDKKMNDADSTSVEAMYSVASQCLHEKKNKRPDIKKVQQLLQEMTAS

SMILES	IC50 [nM]
N#Cc1sccc1NC(=O)c1ccc2cnc(N3CCCNCC3)nn12 [Example 43, N-(2-cyanothiophen-3-yl)-2-(1,4-diazepan-1-yl)pyrrolo[2,1-f][1,2,4]triazine-7-carboxamide trifluoroacetate]	1040
Cn1cc(NC(=O)c2ccc3cnc(NC4CCCCNC4)nn23)c(C(F)F)n1 (stereo not shown) [Example 19, 2-(azepan-3-ylamino)-N-[3-(difluoromethyl)-1-methyl-1H-pyrazol-4-yl]pyrrolo[2,1-f][1,2,4]triazine-7-carboxamide trifluoroacetate]	1
Cn1cc(NC(=O)c2ccc3cnc(N[C@@H]4CCCCNC4)nn23)c(C(F)(F)F)n1 (single isomer, unassigned) [Example 72, 2-[(3S)- or (3R)-azepan-3-ylamino]-N-[1-methyl-3-(trifluoromethyl)-1H-pyrazol-4-yl]pyrrolo[2,1-f][1,2,4]triazine-7-carboxamide trifluoroacetate]	4
Cn1cc(NC(=O)c2ccc3cnc(N4C[C@H]5CN[C@H](C5)C4)nn23)c(C(F)F)n1 (single isomer, unassigned) [Example 104, 2-[(1S,5S)- or (1R,5R)-3,6-diazabicyclo[3.2.1]oct-3-yl]-N-[3-(difluoromethyl)-1-methyl-1H-pyrazol-4-yl]pyrrolo[2,1-f][1,2,4]triazine-7-carboxamide]	28
Cn1cc(NC(=O)c2ccc3cnc(N[C@@H]4CCCC[C@@H]4N)nn23)c(C#N)n1 [Example 35, 2-{[(1R,2S)-2-aminocyclohexyl]amino}-N-(3-cyano-1-methyl-1H-pyrazol-4-yl)pyrrolo[2,1-f][1,2,4]triazine-7-carboxamide trifluoroacetate]	1
Cn1cc(NC(=O)c2ccc3cnc(N[C@H]4CCCCNC4)nn23)c(C(F)F)n1 (single isomer, unassigned) [Example 91, 2-[(3S)- or (3R)-azepan-3-ylamino]-N-[3-(difluoromethyl)-1-methyl-1H-pyrazol-4-yl]pyrrolo[2,1-f][1,2,4]triazine-7-carboxamide trifluoroacetate]	1
Cn1cc(NC(=O)c2ccc3cnc(N4C[C@@H](N)C[C@H](F)C4)nn23)c(C(F)F)n1 [Example 157, 2-[(3S,5S)-3-amino-5-fluoropiperidin-1-yl]-N-[3-(difluoromethyl)-1-methyl-1H-pyrazol-4-yl]pyrrolo[2,1-f][1,2,4]triazine-7-carboxamide trifluoroacetate]	0.8
O=C(Nc1ccsc1C(F)(F)F)c1ccc2cnc(N3CCCNCC3)nn12 [Example 85, 2-(1,4-diazepan-1-yl)-N-[2-(trifluoromethyl)thiophen-3-yl]pyrrolo[2,1-f][1,2,4]triazine-7-carboxamide trifluoroacetate]	2640
Cn1cc(NC(=O)c2ccc3cnc(N4CCCNCC4)nn23)c(Cl)n1 [Example 26, N-(3-chloro-1-methyl-1H-pyrazol-4-yl)-2-(1,4-diazepan-1-yl)pyrrolo[2,1-f][1,2,4]triazine-7-carboxamide trifluoroacetate]	61
Cn1cc(NC(=O)c2ccc3cnc(N4C[C@@H]5CC[C@H]4CN5)nn23)c(Cl)n1 (single isomer, unassigned) [Example 44, N-(3-chloro-1-methyl-1H-pyrazol-4-yl)-2-[(1S,4S)- or (1R,4R)-2,5-diazabicyclo[2.2.2]oct-2-yl]pyrrolo[2,1-f][1,2,4]triazine-7-carboxamide trifluoroacetate]	125
N[C@H]1CCCC[C@H]1Nc1ncc2ccc(C(=O)Nc3ccccc3C(F)(F)F)n2n1 [Example 27, 2-{[(1R,2S)-2-aminocyclohexyl]amino}-N-[2-(trifluoromethyl)phenyl]-pyrrolo[2,1-f][1,2,4]triazine-7-carboxamide trifluoroacetate]	392
Cn1cc(NC(=O)c2ccc3cnc(N4C[C@@H]5CC[C@H]4CN5)nn23)c(C(F)(F)F)n1 (single isomer, unassigned) [Example 170, 2-[(1S,4S)- or (1R,4R)-2,5-diazabicyclo[2.2.2]oct-2-yl]-N-[1-methyl-3-(trifluoromethyl)-1H-pyrazol-4-yl]pyrrolo[2,1-f][1,2,4]triazine-7-carboxamide]	35
N[C@@H]1[C@H](Nc2ncc3ccc(C(=O)Nc4ccsc4Br)n3n2)CCCC1(F)F [Example 94, 2-{[(1R,2R)-2-amino-3,3-difluorocyclohexyl]amino}-N-(2-bromothiophen-3-yl)pyrrolo[2,1-f][1,2,4]triazine-7-carboxamide trifluoroacetate]	4150
O=C(Nc1cscc1C(F)F)c1ccc2cnc(N3CCCNCC3)nn12 [Example 41, 2-(1,4-diazepan-1-yl)-N-[4-(difluoromethyl)thiophen-3-yl]pyrrolo[2,1-f][1,2,4]triazine-7-carboxamide trifluoroacetate]	88
Cn1cc(NC(=O)c2ccc3cnc(N4CCC[C@@H](N)C4)nn23)c(C#N)n1 [Example 125, 2-[(3R)-3-aminopiperidin-1-yl]-N-(3-cyano-1-methyl-1H-pyrazol-4-yl)pyrrolo[2,1-f][1,2,4]triazine-7-carboxamide trifluoroacetate]	1
O=C(Nc1ccccc1C(F)(F)F)c1ccc2cnc(N3C[C@H]4CC[C@@H]3CN4)nn12 (single isomer, unassigned) [Example 68, 2-[(1S,4S)- or (1R,4R)-2,5-diazabicyclo[2.2.2]oct-2-yl]-N-[2-(trifluoromethyl)phenyl]-pyrrolo[2,1-f][1,2,4]triazine-7-carboxamide trifluoroacetate]	218
O=C(Nc1ccsc1C(F)(F)F)c1ccc2cnc(N3C[C@H]4CC[C@@H]3CN4)nn12 (single isomer, unassigned) [Example 87, 2-[(1S,4S)- or (1R,4R)-2,5-diazabicyclo[2.2.2]oct-2-yl]-N-[2-(trifluoromethyl)thiophen-3-yl]pyrrolo[2,1-f][1,2,4]triazine-7-carboxamide trifluoroacetate]	1440
N#Cc1ccccc1NC(=O)c1ccc2cnc(N[C@@H]3CCCC[C@@H]3O)nn12 [Example 71, N-(2-cyanophenyl)-2-{[(1R,2S)-2-hydroxycyclohexyl]amino}-pyrrolo[2,1-f][1,2,4]triazine-7-carboxamide]	661
O=C(Nc1ccsc1Cl)c1ccc2cnc(N3C[C@H]4CC[C@@H]3CN4)nn12 (single isomer, unassigned) [Example 54, N-(2-chlorothiophen-3-yl)-2-[(1S,4S)- or (1R,4R)-2,5-diazabicyclo[2.2.2]oct-2-yl]pyrrolo[2,1-f][1,2,4]triazine-7-carboxamide trifluoroacetate]	819
N[C@H]1CCCC[C@H]1Nc1ncc2ccc(C(=O)Nc3ccccc3Cl)n2n1 [Example 40, 2-{[(1R,2S)-2-aminocyclohexyl]amino}-N-(2-chlorophenyl)pyrrolo[2,1-f][1,2,4]triazine-7-carboxamide trifluoroacetate]	3
N[C@@H]1[C@H](Nc2ncc3ccc(C(=O)Nc4ccccc4C(F)(F)F)n3n2)CCCC1(F)F [Example 137, 2-{[(1R,2R)-2-amino-3,3-difluorocyclohexyl]amino}-N-[2-(trifluoromethyl)phenyl]-pyrrolo[2,1-f][1,2,4]triazine-7-carboxamide trifluoroacetate]	2190
N#Cc1ccccc1NC(=O)c1ccc2cnc(N3CCNCC3)nn12 [Example 58, N-(2-cyanophenyl)-2-piperazin-1-ylpyrrolo[2,1-f][1,2,4]triazine-7-carboxamide trifluoroacetate]	1910
N[C@@H]1[C@H](Nc2ncc3ccc(C(=O)Nc4cscc4Cl)n3n2)CCCC1(F)F [Example 126, 2-{[(1R,2R)-2-amino-3,3-difluorocyclohexyl]amino}-N-(4-chlorothiophen-3-yl)pyrrolo[2,1-f][1,2,4]triazine-7-carboxamide trifluoroacetate]	1270
N[C@H]1CCCC[C@H]1Nc1ncc2ccc(C(=O)Nc3cscc3Br)n2n1 [Example 14, 2-{[(1R,2S)-2-aminocyclohexyl]amino}-N-(4-bromothiophen-3-yl)pyrrolo[2,1-f][1,2,4]triazine-7-carboxamide trifluoroacetate]	6
N[C@H]1CCCC[C@H]1Nc1ncc2ccc(C(=O)Nc3ccsc3Cl)n2n1 [Example 30, 2-{[(1R,2S)-2-aminocyclohexyl]amino}-N-(2-chlorothiophen-3-yl)pyrrolo[2,1-f][1,2,4]triazine-7-carboxamide trifluoroacetate]	3
N#Cc1ccccc1NC(=O)c1ccc2cnc(N[C@@H]3CCCC(F)(F)[C@@H]3N)nn12 [Example 136, 2-{[(1R,2R)-2-amino-3,3-difluorocyclohexyl]amino}-N-(2-cyanophenyl)pyrrolo[2,1-f][1,2,4]triazine-7-carboxamide trifluoroacetate]	860
Cn1cc(NC(=O)c2ccc3cnc(N4C[C@H]5CN[C@H](C5)C4)nn23)c(C#N)n1 (single isomer, unassigned) [Example 114, N-(3-cyano-1-methyl-1H-pyrazol-4-yl)-2-[(1S,5S)- or (1R,5R)-3,6-diazabicyclo[3.2.1]oct-3-yl]pyrrolo[2,1-f][1,2,4]triazine-7-carboxamide]	390
Cn1cc(NC(=O)c2ccc3cnc(N4C[C@H](N)C[C@@H](F)C4)nn23)c(C(F)F)n1 [Example 156, 2-[(3R,5R)-3-amino-5-fluoropiperidin-1-yl]-N-[3-(difluoromethyl)-1-methyl-1H-pyrazol-4-yl]pyrrolo[2,1-f][1,2,4]triazine-7-carboxamide trifluoroacetate]	0.5
